Measurements from paper PMC3808999 (Molecular cell, 2013).

What was measured:
R232H human STING = R232H human STING (Homo sapiens, UniProt Q86WV6); test: IFNβ induction; settings: L929 cells expressing R232H human STING; IFN-β RNA by q-RT-PCR
WT human STING = WT human STING (Homo sapiens, UniProt Q86WV6, H232R); test: IFNβ induction; settings: L929 cells expressing WT human STING; IFN-β RNA by q-RT-PCR
R232A human STING = R232A human STING (Homo sapiens, UniProt Q86WV6, H232A); test: IFNβ induction; settings: L929 cells expressing R232A human STING; IFN-β RNA by q-RT-PCR
Sequence of R232A human STING (Q86WV6 whole entry H232A, the tested form may be a part): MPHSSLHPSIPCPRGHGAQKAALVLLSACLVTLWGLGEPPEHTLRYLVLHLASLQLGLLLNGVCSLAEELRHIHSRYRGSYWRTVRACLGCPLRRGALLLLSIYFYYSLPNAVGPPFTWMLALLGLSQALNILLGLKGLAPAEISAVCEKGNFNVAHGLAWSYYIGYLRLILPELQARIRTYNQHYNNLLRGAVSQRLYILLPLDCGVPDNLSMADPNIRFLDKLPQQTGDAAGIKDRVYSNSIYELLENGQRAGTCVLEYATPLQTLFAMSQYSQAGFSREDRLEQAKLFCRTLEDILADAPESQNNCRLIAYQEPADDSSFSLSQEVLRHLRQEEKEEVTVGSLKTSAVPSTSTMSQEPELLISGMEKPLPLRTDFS

[1] = biological target: human STING C-terminal domain (CTD, residues 139–379) (Homo sapiens, UniProt Q86WV6, H232R); test: Isothermal titration calorimetry; settings: direct ITC titration
Sequence of human STING C-terminal domain (CTD, residues 139–379) (Q86WV6 139-379 H232R): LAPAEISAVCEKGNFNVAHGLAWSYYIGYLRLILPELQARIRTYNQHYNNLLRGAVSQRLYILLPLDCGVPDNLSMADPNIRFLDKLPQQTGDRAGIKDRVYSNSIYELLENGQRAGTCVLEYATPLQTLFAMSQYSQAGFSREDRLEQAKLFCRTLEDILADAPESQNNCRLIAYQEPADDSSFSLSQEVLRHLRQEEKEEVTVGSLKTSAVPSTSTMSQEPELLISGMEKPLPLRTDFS

Sequence of R232H human STING (Q86WV6 whole entry, stated change not applied): as the sequence (Q86WV6 whole entry H232A, the tested form may be a part) above, with A232H counted along it
Sequence of WT human STING (Q86WV6 whole entry H232R): as the sequence (Q86WV6 whole entry H232A, the tested form may be a part) above, with A232R counted along it

IFNβ induction (R232H human STING)	IFNβ induction (WT human STING)	IFNβ induction (R232A human STING)	Compound	heat character of binding to STING [1]
stimulated IFNβ expression	stimulated IFNβ expression	stimulated IFNβ expression	poly[I:C]	
			Nc1nc2c(ncn2[C@@H]2O[C@@H]3COP(=O)(O)O[C@H]4[C@@H](O)[C@H](n5cnc6c(=O)[nH]c(N)nc65)O[C@@H]4COP(=O)(O)O[C@H]3[C@H]2O)c(=O)[nH]1 [c-di-GMP, cyclic di-GMP]	exothermic
